Test [1] has as its target T1, E. coli Topo IV (Escherichia coli, UniProt P0AFI2+P20083). Description: E. coli Topo IV relaxation assay. Format: biochemical. The note with it: tested 0.1, 1, 10, 100 µM. How it is done:
E. coli Topo IV relaxation assays were set up in the same way as supercoiling assays with some modifications. The substrate was negatively supercoiled DNA, E. coli Topo IV relaxation buffer (50 mM K-HEPES pH 7.6, 100 mM potassium glutamate, 10 mM magnesium acetate, 10 mM DTT, 1 mM ATP and 0.05 mg ml^−1 BSA) and reactions were incubated for 1 h. Reactions were stopped in the same way as supercoiling assays.
(§1) Results were visualized by agarose gel electrophoresis: 1% agarose Tris-acetate-EDTA (TAE) gels were run without ethidium bromide (supercoiling) or with 10 µg ml^−1 ethidium bromide (cleavage) at 8 V cm^−1.
Supplementary Figure 11. Activity of albicidin and Albi-1/2/3 on E. coli topoisomerase IV. a. Plasmid relaxation activity of E. coli topo IV in the presence of albicidin, Albi-1, Albi-2 and Albi-3. First lane: negatively supercoiled pBR322; second lane: innate relaxation activity of E. coli topo IV (12.5 nM); third lane: effect of 20 µM CFX; subsequent lanes: effect of increasing compound concentration (0.1, 1, 10, 100 […]
higher concentration. b. Cleavage activity of E. coli topo IV in the presence of albicidin, Albi-1, Albi-2 and Albi-3. First lane: negatively supercoiled pBR322; second lane: innate cleavage activity of E. coli topo IV (15 nM); third lane: effect of 20 µM CFX; subsequent lanes: effect of increasing compound concentration (0.1, 1, 10, 100 µM). […]
(§2) concentration. All experiments were carried out in triplicates and representative gels […]
(§3) (1 picture or pasted object on this page, not shown here)

The test system of test [2] is M. luteus DSM1790. Kind of test: MIC determination (microdilution, M07-A9). Format: cell-based. A digest of the protocol:
(§4)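 Broth microdilution per CLSI M07-A9 in MHBII, ~5 × 10^5 c.f.u. ml^−1 inoculum, albicidins at final 8 to 0.016 µg ml^−1 from DMSO stocks. Trays incubated 20 h at 37 °C, with growth, sterility and DMSO solvent controls.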

Test [3] has as its system E. coli DSM116. Description: MIC determination (microdilution, M07-A9). Format: cell-based. The note with it: Escherichia coli, DSM116, E. coli DSM116, read-out: MIC. The method, boiled down: as §4
A general note: In broth dilution the organism is exposed to a series of concentrations in liquid medium.

The target of test [4] is T1, E. coli Topo IV. Kind of test: Topo IV cleavage assay (cleavage complex stabilization). Format: biochemical. The conditions noted are these: for concentration at which a linear DNA band could be observed: Topo IV cleavage complex stabilization, tested 0.1, 1, 10, 100 µM; for stabilization of the cleavage complex with Topo IV: in words. How it is done:
Topo IV cleavage assays were set up in the same way as relaxation assays with some modifications. The concentration of enzyme was increased by 20% and cleavage complexes were trapped by the addition of 0.2% SDS and proteinase K (0.2 mg ml^−1) and further incubation at 37 °C for 30 min. Reactions were stopped in the same way as supercoiling assays.
as §1
Supplementary Figure 11. Activity of albicidin and Albi-1/2/3 on E. coli […]
Cleavage activity of E. coli topo IV in the presence of albicidin, Albi-1, Albi-2 and Albi-3. First lane: negatively supercoiled pBR322; second lane: innate cleavage activity of E. coli topo IV (15 nM); third lane: effect of 20 µM CFX; subsequent lanes: effect of increasing compound concentration (0.1, 1, 10, 100 µM). […]
as §2, §3

Test [5] deals with selected Gram-negative and Gram-positive microorganisms. Description: MIC activity groups over all tested strains. Format: cell-based. More on the design: key: a: most potent; b: intermediate; least active. The note with it: MIC panel. How it is done:
MIC values were determined according to the ninth edition of the Approved Standard M07-A9. The test was carried out for six different bacterial strains (E. coli DSM 1116 (Gram-negative), E. coli BW25113 (Gram-negative), B. subtilis DSM 10 (Gram-positive), M. luteus DSM 1790 (Gram-positive), M. phlei DSM 750 (Gram-positive), S. typhimurium TA 100 (Gram-negative). First, 20 µl of glycerol stock of each strain was inoculated in 20 ml LB (Lennox) followed by incubation overnight at 37 °C, 200 r.p.m. The test inoculum was adjusted by the 0.5 McFarland Standard. Within 15 min of preparation, the adjusted inoculum suspension was diluted in MHBII so that each well contained approximately 5 × 10^5 c.f.u. ml^−1 in a final volume of 100 µl. Then, 95 µl of the inoculum was applied per well and 5 µl of the (diluted) albicidins was added. For dilutions, the dry powders were dissolved in dimethylsulfoxide (DMSO) with a concentration of 2.56 mg ml^−1, and the obtained stock solutions were further diluted in DMSO. Next, 5 µl of each antibiotic dilution was applied to the microdilution tray to reach final concentrations of 8 to 0.016 µg ml^−1. One row of each well plate served as a growth control without antibiotic and another row of the microdilution tray served as a sterility control (only MHBII media). The antimicrobial effect of the solvent was tested by adding 5 µl DMSO to several wells. Purity check and cell titre control were performed according to International Standard M07-A9 on Mueller–Hinton II Agar. Both microdilution trays and agar plates were incubated at 37 °C for 20 h.

Where [6] appears, read: Micrococcus luteus, first value in cell (biological replicate), read-out: MIC.
Setting [7] is: second value in cell (biological replicate).
[8] abbreviates: first value in cell (biological replicate).

Here are results for four molecules from paper PMC9886550, “Molecular mechanism of topoisomerase poisoning by the peptide antibiotic albicidin” (Nature Catalysis, 2023).

Converted amounts (≈) assume the structure as drawn. Like-named read-outs stand apart in the source and are kept apart here. Bounds are passed on as bounds.

T1 sequence (P0AFI2 whole entry): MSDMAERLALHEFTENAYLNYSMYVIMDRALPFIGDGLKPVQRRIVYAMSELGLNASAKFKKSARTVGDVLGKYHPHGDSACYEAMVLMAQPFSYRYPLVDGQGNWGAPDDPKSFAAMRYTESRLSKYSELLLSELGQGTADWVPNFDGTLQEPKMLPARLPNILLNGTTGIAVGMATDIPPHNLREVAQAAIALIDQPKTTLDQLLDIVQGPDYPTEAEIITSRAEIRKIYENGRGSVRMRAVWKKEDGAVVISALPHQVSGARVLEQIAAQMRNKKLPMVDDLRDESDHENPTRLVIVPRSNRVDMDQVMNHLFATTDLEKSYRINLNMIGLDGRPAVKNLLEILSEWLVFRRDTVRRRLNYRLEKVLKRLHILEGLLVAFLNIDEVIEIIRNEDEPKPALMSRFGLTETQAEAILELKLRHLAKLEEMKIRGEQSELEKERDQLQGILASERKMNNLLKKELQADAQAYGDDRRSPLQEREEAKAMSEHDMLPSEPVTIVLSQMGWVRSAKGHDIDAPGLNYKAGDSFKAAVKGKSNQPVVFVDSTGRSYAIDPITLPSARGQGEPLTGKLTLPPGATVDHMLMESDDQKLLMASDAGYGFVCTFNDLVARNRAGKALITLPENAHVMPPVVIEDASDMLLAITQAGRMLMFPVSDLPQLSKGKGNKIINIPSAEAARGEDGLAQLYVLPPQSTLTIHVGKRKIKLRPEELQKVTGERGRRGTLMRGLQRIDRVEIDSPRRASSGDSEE
T1 sequence (P20083 whole entry): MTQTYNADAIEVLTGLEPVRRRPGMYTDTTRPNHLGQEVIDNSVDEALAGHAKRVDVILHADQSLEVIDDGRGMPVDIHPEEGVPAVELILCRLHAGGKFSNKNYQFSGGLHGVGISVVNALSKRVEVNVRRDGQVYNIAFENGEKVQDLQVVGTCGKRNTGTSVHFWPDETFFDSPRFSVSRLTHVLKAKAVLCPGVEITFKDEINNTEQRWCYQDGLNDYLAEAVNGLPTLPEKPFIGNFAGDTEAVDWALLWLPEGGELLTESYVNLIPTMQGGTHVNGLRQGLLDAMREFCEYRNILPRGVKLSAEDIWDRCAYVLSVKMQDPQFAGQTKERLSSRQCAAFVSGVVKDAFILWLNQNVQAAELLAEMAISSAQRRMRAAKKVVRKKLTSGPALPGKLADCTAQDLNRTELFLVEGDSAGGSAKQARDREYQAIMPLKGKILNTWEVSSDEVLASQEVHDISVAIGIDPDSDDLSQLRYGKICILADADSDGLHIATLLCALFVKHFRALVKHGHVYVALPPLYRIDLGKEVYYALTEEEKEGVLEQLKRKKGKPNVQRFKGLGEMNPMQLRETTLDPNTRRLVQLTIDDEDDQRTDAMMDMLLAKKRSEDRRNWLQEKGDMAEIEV

In the case of `CC(C)Oc1c(NC(=O)c2ccc(NC(=O)[C@H](Cc3c[nH]nn3)NC(=O)c3ccc(NC(=O)c4ccc(C#N)cc4)cn3)cn2)ccc(C(=O)Nc2ccc(C(=O)O)cc2)c1O` [Albi-1], the “concentration required for full inhibition of Topo IV relaxation activity” value in test [1] amounted to 10 µM. For the same molecule, the minimal inhibitory concentration (MIC) was less than 0.016 mg/L in test [2] (setting [6]), <0.016 <0.016 µg ml^−1 in test [2] (setting [7]), 0.031 mg/L (≈ 0.037 µM) in test [3] (setting [8]) and 0.031 mg/L (≈ 0.037 µM) in test [3] (setting [7]). In test [4], the “concentration at which a linear DNA band could be observed” value was 1 µM. For the same molecule, in test [4], the “stabilization of the cleavage complex with Topo IV” value (“stabilization” below) is “could stabilize the cleavage complex”. Moreover, the “activity group (superscript letter)” value in test [5] is listed as “Albi-1^a”.
Turning to `COc1c(NC(=O)c2ccc(NC(=O)c3ccc(NC(=O)[C@H](Cc4c[nH]nn4)NC(=O)c4ccc(NC(=O)c5ccc6cc(O)ccc6c5)cc4)cn3)c(OCCN)c2O)ccc(C(=O)O)c1O` [Albi-2], the “concentration required for full inhibition of Topo IV relaxation activity” value in test [1] came out at 100 µM. Also, the MIC is greater than 8 mg/L in test [2] (setting [6]), >8.0 >8.0 µg ml^−1 in test [2] (setting [7]), 2 mg/L (≈ 2.16 µM) in test [3] (setting [8]) and 4 mg/L (≈ 4.32 µM) in test [3] (setting [7]). Besides, the “activity group (superscript letter)” value in test [5] was “Albi-2^b”.
For `COc1c(NC(=O)c2ccc(NC(=O)c3ccc(NC(=O)[C@H](Cc4c[nH]nn4)NC(=O)c4ccc(NC(=O)c5ccc6nc(C)ccc6c5)cc4)cn3)c(OC)c2O)ccc(C(=O)O)c1O` [Albi-3], the “concentration required for full inhibition of Topo IV relaxation activity” value in test [1] was 10 µM. Further, the MIC is 0.063 mg/L (≈ 0.0704 µM) in test [2] (setting [6]), 0.063 mg/L (≈ 0.0704 µM) in test [2] (setting [7]), less than 0.016 mg/L in test [3] (setting [8]) and less than 0.016 mg/L in test [3] (setting [7]). The “stabilization” value in test [4] was “could stabilize the cleavage complex”.
For the molecule `COc1c(NC(=O)c2ccc(NC(=O)c3ccc(NC(=O)[C@H](CC#N)NC(=O)c4ccc(NC(=O)/C(C)=C/c5ccc(O)cc5)cc4)cc3)c(OC)c2O)ccc(C(=O)O)c1O` [Albicidin], the “concentration required for full inhibition of Topo IV relaxation activity” value in test [1] worked out at 100 µM. Further, the MIC in test [2] (setting [6]) was determined as 1 mg/L (≈ 1.19 µM); in test [2] (setting [7]) it was 1.0 mg/L (≈ 1.19 µM); in test [3] (setting [8]), 0.063 mg/L (≈ 0.0747 µM); in test [3] (setting [7]), 0.063 mg/L (≈ 0.0747 µM). The “concentration at which a linear DNA band could be observed” value in test [4] turned out to be 10 µM. The “stabilization” value in test [4] is given as “could stabilize the cleavage complex”. Besides, the “activity group (superscript letter)” value in test [5] is reported as “Albicidin^a”.

The MIC is the lowest concentration that inhibits growth of the organism.
